From ChEMBL document CHEMBL1201862, “PubChem BioAssay data set” (2004)
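Growth conditions: 96-well plates. Treatment: test compound, 48 hours, 5 concentrations. Analysis: linear interpolation between bracketing concentrations; unreached endpoints set to highest concentration. GI50 is the concentration that inhibits growth by half.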 Calls of active or inactive are those of the source. No stated cut-off is given here; in the data, active = GI50 up to about 1.1 µM and inactive = higher.

Legend:
Test in all cases: inhibition of tumour cell growth, NCI panel, 48 h
786-0 = tested on: 786-0
A498 = tested on: A498
A549 = tested on: A549
ACHN = tested on: ACHN
CAKI-1 = tested on: CAKI-1
CCRF-CEM = tested on: CCRF-CEM
COLO 205 = tested on: COLO 205
DU-145 = tested on: DU-145
HCC 2998 = tested on: HCC 2998
HCT-116 = tested on: HCT-116
HCT-15 = tested on: HCT-15
HOP-92 = tested on: HOP-92
HT-29 = tested on: HT-29
K562 = tested on: K562
KM12 = tested on: KM12
LOX IMVI = tested on: LOX IMVI
M14 = tested on: M14
MCF7 = tested on: MCF7
MDA-MB-231 = tested on: MDA-MB-231
MDA-MB-435 = tested on: MDA-MB-435
MOLT-4 = tested on: MOLT-4
NCI-H226 = tested on: NCI-H226
NCI-H23 = tested on: NCI-H23
NCI-H460 = tested on: NCI-H460
NCI-H522 = tested on: NCI-H522
NCI/ADR-RES = tested on: NCI/ADR-RES
OVCAR-4 = tested on: OVCAR-4
OVCAR-5 = tested on: OVCAR-5
OVCAR-8 = tested on: OVCAR-8
PC-3 = tested on: PC-3
RPMI-8226 = tested on: RPMI-8226
RXF 393 = tested on: RXF 393
SF-268 = tested on: SF-268
SF-295 = tested on: SF-295
SF-539 = tested on: SF-539
SK-MEL-28 = tested on: SK-MEL-28
SK-MEL-2 = tested on: SK-MEL-2
SK-MEL-5 = tested on: SK-MEL-5
SK-OV-3 = tested on: SK-OV-3
SN12C = tested on: SN12C
SNB-19 = tested on: SNB-19
SR = tested on: SR
SW-620 = tested on: SW-620
TK-10 = tested on: TK-10
U-251 = tested on: U-251
UACC-257 = tested on: UACC-257
UACC-62 = tested on: UACC-62
UO-31 = tested on: UO-31
EKVX = tested on: EKVX
HOP-62 = tested on: HOP-62
Hs-578T = tested on: Hs-578T
IGROV-1 = tested on: IGROV-1
MDA-N = tested on: MDA-N
Malme-3M = tested on: Malme-3M
OVCAR-3 = tested on: OVCAR-3
SNB-75 = tested on: SNB-75
HL-60 = tested on: HL-60
BT-549 = tested on: BT-549

Measured: GI50

Oc1ccc(N=C2CCC(=C(c3ccccc3)c3ccc(Nc4ccc(O)cc4)cc3)CC2)cc1
inactive: 786-0 78.7 µM | A498 > 100 µM | A549 83.9 µM | ACHN 67.1 µM | CAKI-1 35.4 µM | CCRF-CEM 88.9 µM | COLO 205 33.3 µM | DU-145 60.8 µM | HCC 2998 64.3 µM | HCT-116 39.4 µM | HOP-92 > 100 µM | HT-29 48.8 µM | K562 > 100 µM | KM12 32.4 µM | LOX IMVI 73.3 µM | M14 > 100 µM | MCF7 > 100 µM | MDA-MB-231 75.5 µM | MDA-MB-435 34.5 µM | MOLT-4 83.6 µM | NCI-H226 > 100 µM | NCI-H23 62.7 µM | NCI-H460 85.7 µM | NCI-H522 47 µM | NCI/ADR-RES 80.9 µM | OVCAR-4 86.5 µM | OVCAR-5 > 100 µM | OVCAR-8 48.5 µM | PC-3 96.2 µM | RPMI-8226 46.1 µM | RXF 393 58.6 µM | SF-268 50.9 µM | SF-295 > 100 µM | SF-539 46.1 µM | SK-MEL-28 > 100 µM | SK-MEL-2 77.6 µM | SK-MEL-5 > 100 µM | SK-OV-3 62.1 µM | SN12C 54.6 µM | SNB-19 78.5 µM | SR 19.7 µM | SW-620 58.1 µM | TK-10 > 100 µM | U-251 47.3 µM | UACC-257 > 100 µM | UACC-62 55.8 µM | UO-31 57.4 µM
> 100 µM: HCT-15

CC(=O)Oc1cc(OC(C)=O)c2c(C)cc(=O)oc2c1
inactive: 786-0 > 100 µM | A498 41 µM | A549 > 100 µM | ACHN > 100 µM | CCRF-CEM > 100 µM | COLO 205 > 100 µM | DU-145 > 100 µM | EKVX > 100 µM | HCT-116 > 100 µM | HOP-62 > 100 µM | HT-29 > 100 µM | Hs-578T > 100 µM | IGROV-1 95.7 µM | K562 > 100 µM | KM12 > 100 µM | LOX IMVI > 100 µM | M14 87.3 µM | MCF7 76.2 µM | MDA-MB-231 > 100 µM | MDA-MB-435 > 100 µM | MDA-N > 100 µM | MOLT-4 > 100 µM | Malme-3M > 100 µM | NCI-H226 > 100 µM | NCI-H23 > 100 µM | NCI/ADR-RES > 100 µM | OVCAR-3 > 100 µM | OVCAR-4 > 100 µM | OVCAR-5 > 100 µM | OVCAR-8 > 100 µM | PC-3 > 100 µM | RPMI-8226 > 100 µM | SF-268 > 100 µM | SF-295 > 100 µM | SF-539 36.1 µM | SK-MEL-28 > 100 µM | SK-MEL-2 > 100 µM | SK-MEL-5 > 100 µM | SK-OV-3 > 100 µM | SN12C > 100 µM | SNB-19 > 100 µM | SNB-75 66.8 µM | SR > 100 µM | SW-620 > 100 µM | TK-10 97.7 µM | U-251 > 100 µM | UACC-257 > 100 µM | UACC-62 > 100 µM | UO-31 67.3 µM
> 100 µM: HCT-15

CC1C(=O)C(C)C(c2ccccc2)N(C)C1c1ccccc1 (centres undefined)
inactive: HL-60 20.7 µM | HT-29 28.6 µM | MOLT-4 19.9 µM | OVCAR-5 50.9 µM | RPMI-8226 21.8 µM | SR 20.2 µM

Cc1ccc(-c2c(C#N)c(O)n(NS(=O)(=O)c3ccccc3)c(=O)c2C#N)cc1
> 100 µM: HCT-15
inactive: 786-0 > 100 µM | A498 > 100 µM | A549 > 100 µM | ACHN > 100 µM | BT-549 > 100 µM | CAKI-1 > 100 µM | CCRF-CEM > 100 µM | COLO 205 > 100 µM | EKVX > 100 µM | HCC 2998 > 100 µM | HCT-116 > 100 µM | HL-60 > 100 µM | HOP-62 > 100 µM | HOP-92 > 100 µM | HT-29 > 100 µM | IGROV-1 > 100 µM | K562 > 100 µM | KM12 > 100 µM | LOX IMVI > 100 µM | M14 > 100 µM | MCF7 > 100 µM | MDA-MB-231 > 100 µM | MDA-MB-435 > 100 µM | MOLT-4 > 100 µM | Malme-3M > 100 µM | NCI-H226 > 100 µM | NCI-H460 > 100 µM | NCI-H522 > 100 µM | NCI/ADR-RES > 100 µM | OVCAR-4 > 100 µM | OVCAR-5 > 100 µM | OVCAR-8 > 100 µM | PC-3 > 100 µM | RXF 393 > 100 µM | SF-268 > 100 µM | SF-295 > 100 µM | SF-539 > 100 µM | SK-MEL-28 > 100 µM | SK-MEL-2 > 100 µM | SK-MEL-5 68.5 µM | SK-OV-3 > 100 µM | SN12C > 100 µM | SNB-19 > 100 µM | SNB-75 > 100 µM | SW-620 > 100 µM | TK-10 > 100 µM | U-251 > 100 µM | UACC-257 > 100 µM | UACC-62 > 100 µM
